Experimental data as given in the PolyMetriX glass transition set.
± gives the standard deviation of the reports.

| SMILES | glass transition temperature |
| --- | --- |
| *Oc1ccc(C(c2ccccc2)c2ccc(OC(*)=O)cc2C)c(C)c1 (repeat unit) | 182.00 °C |
| *Oc1ccc(/N=C(\c2ccccc2)c2ccc(Oc3ccc(-c4ccc(Oc5ccc(/C(=N/c6ccc(*)cc6)c6ccccc6)cc5)cc4)cc3)cc2)cc1 (repeat unit) | 174.00 °C |
| *c1ccc(Cc2ccc(N3C(=O)c4ccc(Oc5ccc6c(c5)C(=O)N(*)C6=O)cc4C3=O)c(C(C)(C)C)c2)cc1C(C)(C)C (repeat unit) | 216.00 °C |
| *OC1C(CO)OC(*)C(O)C1O (repeat unit) | 332.00 °C |
| *O[Si](*)(C)CCCCCCCCCCC(=O)Oc1ccc(-c2ccc(OC(=O)c3ccc(OCCCCCCC)cc3)cc2)cc1 (repeat unit) | 61.10 °C |
| *Oc1cc(OC(=O)c2ccc(C)cc2)c(OC(=O)CCCCCCCCCCCCCCC(*)=O)cc1OC(=O)c1ccc(C)cc1 (repeat unit) | 27.00 °C |
| *CCCCCCNC(=O)c1cc(NC(=O)C(C(C)CC)N2C(=O)c3ccccc3C2=O)cc(C(=O)N*)c1 (repeat unit) | 135.00 °C |
| *CCCCc1ccc(-c2c(-c3ccccc3)cc(-c3ccc(-c4cc(-c5ccccc5)c(-c5ccc(*)cc5)c(-c5ccccc5)c4-c4ccccc4)cc3)c(-c3ccccc3)c2-c2ccccc2)cc1 (repeat unit) | 205.00 °C |
| *CC(*)(C)C(=O)OCCCOc1ccc2cc(C(=O)Oc3ccccc3)ccc2c1 (repeat unit) | 84.00 °C |
| *C(=O)Nc1cccc(NC(=O)c2cccc(NC(=O)c3ccc(-c4nc5cc(*)ccc5[nH]4)cc3)c2)c1 (repeat unit) | 292.00 °C |
| *Oc1ccc(C(=O)c2ccc(Oc3ccc4c(=O)n5c6cc(-c7ccc8c(c7)nc7c9ccc(*)c%10cccc(c(=O)n87)c%109)ccc6nc5c5cccc3c45)cc2)cc1 (repeat unit) | 389.00 °C |
| *CC(*)(C)C(=O)OC1CC2CCC1(C)C2(C)C (repeat unit) | 180.50 °C |
| *C(=O)c1ccc2c(c1)C(=O)N(c1cccc(OCCOCCOc3cccc(N4C(=O)c5ccc(*)cc5C4=O)c3)c1)C2=O (repeat unit) | 155.00 °C |
| *Oc1c(C)cc(*)cc1C(C)CCCC (repeat unit) | 85.00 °C |
| *C(=O)Nc1ccc(Oc2cccc(Oc3ccc(NC(=O)c4ccc5c(c4)C(=O)N(c4ccc(Oc6cccc(Oc7ccc(N8C(=O)c9ccc(*)cc9C8=O)cc7)c6C#N)cc4)C5=O)cc3)c2)cc1 (repeat unit) | 217.00 °C |
| *=Nc1ccc(Cc2ccc(NC(=*)c3ccccc3)cc2)cc1 (repeat unit) | 158.00 °C |
| *CC(*)OC(=O)OCC(F)(F)F (repeat unit) | 57.00 °C |
| *O[Si](C)(C)O[Si](*)(C)CCCCCCCCOc1ccc(C(=O)Oc2ccc(C#N)cc2C)cc1 (repeat unit) | -15.00 °C |
| *CCOC(=O)/C=C/C(=O)NCCCCCCNC(=O)/C=C/C(=O)O* (repeat unit) | 89.00 °C |
| *Oc1ccc(C(=O)c2ccc(C(=O)c3ccc(*)c(C(C)C)c3)cc2)cc1C (repeat unit) | 149.00 °C |
| *Oc1ccc(S(=O)c2ccc(Oc3ccc(/C=N/N=C/c4ccc(*)cc4)cc3)cc2)cc1 (repeat unit) | 151.00 °C |

| SMILES | glass transition temperature |
| --- | --- |
| *CCCCCCCCCCOc1ccc(/C=C2\CCC/C(=C\c3ccc(O*)cc3)C2=O)cc1 (repeat unit) | 85.00 °C |
| *c1ccc2c(c1)C(=O)N(c1ccc(Oc3cccc(Oc4ccc(N5C(=O)c6ccc(C(*)(C(F)(F)F)C(F)(F)F)cc6C5=O)cc4)c3C#N)cc1)C2=O (repeat unit) | 280.00 °C |
| *Oc1ccc(Cc2ccc(OC(=O)c3cccc(C(*)=O)c3)cc2)cc1 (repeat unit) | 150.00 °C |
| *CCCCCCOP(=O)(/N=N/c1ccc(Oc2ccc(/N=N/P(=O)(O*)OC)cc2)cc1)OC (repeat unit) | 25.00 °C |
| *CC(O)CN(*)c1cc(C)c(/N=N/c2ccc([N+](=O)[O-])cc2C)c(C)c1 (repeat unit) | 149.00 °C |
| *C(=O)Oc1ccc(OC(=O)c2ccc3c(c2)C(=O)N(c2ccc(Cc4ccc(N5C(=O)c6ccc(*)cc6C5=O)cc4)cc2)C3=O)c(C(C)(C)C)c1 (repeat unit) | 160.00 °C |
| *CC(COc1ccc(C(C)(C)c2ccc(O*)cc2)cc1)OC(=O)CC (repeat unit) | 60.00 °C |
| *Oc1ccc(Oc2ccc(Oc3ccc(NC(=O)c4ccc(-c5ccc(C(=O)Nc6ccc(*)cc6)c(C)c5)cc4C)cc3)cc2)cc1 (repeat unit) | 200.00 °C |
| *c1cccc(N2C(=O)c3ccc(Oc4cc5ccccc5cc4Oc4ccc5c(c4)C(=O)N(*)C5=O)cc3C2=O)c1 (repeat unit) | 237.00 °C |
| *CCCCCCOC(=O)C(Cc1ccccc1)NC(=O)/C=C/C(=O)NC(Cc1ccccc1)C(=O)O* (repeat unit) | 92.00 °C |
| *Oc1ccc(CC(NC(=O)CCc2ccc(OC(=O)CCCCC(*)=O)cc2)C(=O)OCCCCCC)cc1 (repeat unit) | 37.73 °C |
| *ON(C(F)(F)F)C(F)(Br)C(*)(F)F (repeat unit) | 3.00 °C |
| *CC(*)c1ccc(COCCOCCCCCCCC)cc1 (repeat unit) | -42.00 °C |
| *Nc1ccc(C(=O)c2ccc(C(=O)c3ccc(Nc4ccc5c(c4)c4cc(*)ccc4n5CC(CC)CCCC)cc3)cc2)cc1 (repeat unit) | 213.00 °C |
| *[O][Sn]([CH2]CCC)([CH2]CCC)[O]C(=O)CCCCC(*)=O (repeat unit) | 110.00 °C |
| *C(=O)c1ccc2c(c1)C(=O)N(c1ccc(Oc3c(C)cc(C(c4cc(C)c(Oc5ccc(N6C(=O)c7ccc(*)cc7C6=O)cc5)c(C)c4)c4cccc5ccccc45)cc3C)cc1)C2=O (repeat unit) | 272.00 °C |
| *CC(O)COc1ccc(C(C)(C)C2CCC(C)(c3ccc(O*)cc3)CC2)cc1 (repeat unit) | 135.00 °C |
| *CC(C)(C)COC(=O)c1ccc(-c2ccc(-c3ccc(C(=O)O*)cc3)cc2)cc1 (repeat unit) | 100.00 °C |
| *c1ccc2c(c1)C(CCCCCC)(CCCCCC)c1cc(-c3cc(CCCCCCCC)c(*)cc3CCCCCCCC)ccc1-2 (repeat unit) | 74.50 °C |
| *c1ccc(C2(c3ccc(N4C(=O)C(c5ccccc5)=C(c5ccc(C6=C(c7ccccc7)C(=O)N(*)C6=O)cc5)C4=O)cc3)c3ccccc3-c3ccccc32)cc1 (repeat unit) | 340.00 °C |
| *c1ccc(Oc2ccc(C(=O)c3ccc(Oc4ccc(-c5nc(-c6ccccn6)nnc5*)cc4)cc3)cc2)cc1 (repeat unit) | 223.00 °C |

| SMILES | glass transition temperature |
| --- | --- |
| *c1ccc(Oc2ccc(C(C)(C)c3ccc(Oc4ccc(-c5nnc(*)n5-c5ccc(S(C)(=O)=O)cc5)cc4)cc3)cc2)cc1 (repeat unit) | 230.00 °C |
| *C1C(=O)N(c2cc(Br)c(O[Si](CC)(CC)CC)c(Br)c2)C(=O)C1* (repeat unit) | 160.00 °C |
| *OC(=O)C(CCSC)NC(=O)CCCCC(=O)NC(CCSC)C(=O)OC1COC2C(*)COC12 (repeat unit) | 71.00 °C |
| *O[Si](*)(C([2H])([2H])[2H])C([2H])([2H])[2H] (repeat unit) | -125.00 °C |
| *OP(=O)(Oc1ccccc1)Oc1cccc2c(*)cccc12 (repeat unit) | 138.00 °C |
| *c1cc(C(c2ccc(OCCN(c3ccccc3)c3ccc(/C=C/C4=CC(=C(C#N)C#N)CC(C)(C)C4)cc3)c(N3C(=O)c4ccc(Oc5ccc6c(c5)C(=O)N(*)C6=O)cc4C3=O)c2)(C(F)(F)F)C(F)(F)F)ccc1OCCN(c1ccccc1)c1ccc(/C=C/C2=CC(=C(C#N)C#N)CC(C)(C)C2)cc1 (repeat unit) | 220.00 °C |
| */C=C/* (repeat unit) | -4.00 °C |
| *c1ccc(Oc2ccc(N3C(=O)c4ccc(Oc5ccc(C(C)(C)c6ccc(Oc7ccc8c(c7)C(=O)N(*)C8=O)cc6)cc5)cc4C3=O)cc2)cc1 (repeat unit) | 215.00 °C |
| *CC(*)(CC(=O)OCCOC)C(=O)OCCOC (repeat unit) | 34.00 °C |
| *CCOP(=O)(/N=N/c1ccc(-c2ccc(/N=N/P(=O)(O*)OCC)cc2)cc1)OCC (repeat unit) | 43.00 °C |
| *c1ccc(C(=O)Nc2ccc(Oc3ccc(Oc4ccc(NC(=O)c5ccc(Oc6ccc(-c7nn(*)c(=O)c8ccccc78)c7ccccc67)cc5)cc4)cc3)cc2)cc1 (repeat unit) | 289.50 °C |
| *OC(C)CCOC(=O)c1ccc(-c2ccc(C(*)=O)cc2)cc1 (repeat unit) | 92.50 °C |
| *CCCCCCCCCCOC(=O)CCCCC(=O)O* (repeat unit) [Poly(decamethylene adipate) ] | -57 ± 6.6 °C |
| *Oc1ccc(/N=N/c2ccc(S(=O)(=O)c3ccc(/N=N/c4ccc(OC(=O)c5ccc(/N=N/c6ccc(C(*)=O)cc6)cc5)cc4)cc3[N+](=O)[O-])c([N+](=O)[O-])c2)cc1 (repeat unit) | 150.00 °C |
| *CC(*)(C)C(=O)OCC1CCC1 (repeat unit) | 114.00 °C |
| *Oc1ccc(Oc2ccc(NC(=O)c3ccc(Oc4ccc(Oc5ccc(C(=O)Nc6ccc(*)cc6)cc5)cc4C)cc3)cc2)cc1C (repeat unit) | 218.50 °C |
| *c1ccc(Oc2ccc(NC(=O)c3ccc4c(c3)C(=O)N(c3ccc(Cc5ccc(N6C(=O)c7ccc(C(=O)Nc8ccc(Oc9ccc(C%10(*)NC(=O)c%11ccccc%11%10)cc9)cc8)cc7C6=O)cc5)cc3)C4=O)cc2)cc1 (repeat unit) | 302.00 °C |
| *C(=O)c1ccc2c(c1)C(=O)N(c1c(C)cc(C)c(N3C(=O)c4ccc(*)cc4C3=O)c1C)C2=O (repeat unit) | 404.00 ± 8.5 °C |
| *c1ccc(S(=O)(=O)c2ccc(NC(=O)c3cccc(C(=O)Nc4ccc(S(=O)(=O)c5ccc(-n6c(=O)c7cc8c(=O)n(*)c(=O)c8cc7c6=O)cc5)cc4)c3)cc2)cc1 (repeat unit) | 286.00 °C |
| *Oc1ccc(NC(=O)c2ccc(Oc3ccc(C(C)(C)c4ccc(C(C)(C)c5ccc(Oc6ccc(C(=O)Nc7ccc(*)cc7)cc6)cc5)cc4)cc3)cc2)cc1 (repeat unit) | 174.00 °C |
